Test system: patients with negative symptoms of schizophrenia
Test: Study #1 (MIN-101C03) Phase 2b: PANSS-derived scores (PSM, NSFS, total, subscales)
Type: in vivo, human
Details: for Change from Baseline LS Mean: 3-Factor General Psychopathology Subscale Score / Change from Baseline LS Mean: 3-Factor Negative Subscale Score / Change from Baseline LS Mean: 3-Factor Positive Subscale Score / Change from Baseline LS Mean: 5-Factor Activation Score (PSM) / Change from Baseline LS Mean: 5-Factor Autistic Preoccupation Score (PSM) / Change from Baseline LS Mean: 5-Factor Dysphoric Mood Score (PSM) / Change from Baseline LS Mean: 5-Factor Positive Score (PSM) / Change from Baseline LS Mean: NSFS (post-hoc) / Change from Baseline LS Mean: PANSS Negative Factor Score (pentagonal structure model) / Change from Baseline LS Mean: PANSS Total Score / Effect Size vs Placebo: 3-Factor General Psychopathology Subscale Score / Effect Size vs Placebo: 3-Factor Negative Subscale Score / Effect Size vs Placebo: 3-Factor Positive Subscale Score / Effect Size vs Placebo: 5-Factor Activation Score (PSM) / Effect Size vs Placebo: 5-Factor Autistic Preoccupation Score (PSM) / Effect Size vs Placebo: 5-Factor Dysphoric Mood Score (PSM) / Effect Size vs Placebo: 5-Factor Positive Score (PSM) / Effect Size vs Placebo: NSFS (post-hoc) / Effect Size vs Placebo: PANSS Negative Factor Score (pentagonal structure model) / Effect Size vs Placebo: PANSS Total Score: ITT
From the text: “PANSS”, as used herein, refers to the positive and negative syndrome scale, which is used by physicians and clinicians to measure the severity of the symptoms in a schizophrenia patient. The scale is divided into three parts, a positive scale, which provides a “PANSS positive subscore”, a negative scale, which provides a “PANSS negative subscore”, and general psychopathology scale. The sum of these three parts provides a PANSS total score, which ranges from 30 to 210 (where higher scores indicate more severe symptoms). (Kay, S. R., et al. “The positive and negative syndrome scale (PANSS) for schizophrenia,” Schizophr Bulletin, 13(2), 261-276 (1987)).
As used herein, PANSS Marder's negative symptoms factor score (“NSFS”), refers to selection of seven of the PANSS items used by physicians and clinicians to measure the severity of the negative symptoms in a schizophrenia patient. (See Tables 5A and 5B.) The NSFS total score ranges from 7 to 49. (Marder, S. R. et al. “The effects of risperidone on the five dimensions of schizophrenia derived by factor analysis: combined results of the North American trials,” J Clin Psychiatry. 1997; 58:538-46.)
The PANSS was designed to be used in patients with schizophrenia to measure the overall severity of schizophrenic symptoms. The scale has been validated in different cultures and languages and is reliable and acceptable to regulatory health authorities as a primary scale to determine efficacy of intervention in schizophrenia. The name refers to the 2 types of symptoms in schizophrenia, as defined by the American Psychiatric Association: positive symptoms, which refer to an excess or distortion of normal functions (e.g., hallucinations and delusions), and negative symptoms, which represent a diminution or loss of normal functions.
The patient is rated from 1 to 7 on 30 different symptoms based on the interview as well as reports of family members or primary care hospital workers. The original PANSS included 3 groups of symptoms and subscale scores Positive, Negative, and General Psychopathology. Since the inception of PANSS, investigators have proposed additional grouping (structures) of PANSS such as the Marder structure (Marder, S. R. et al. “Issues and perspectives in designing clinical trials for negative symptoms in schizophrenia: consensus statements,” Schizophrenia Bulletin Open. 2020; 1(1). doi:10.1093/schizbullopen/sgz001) and the White structure (White, L. et al. “Empirical assessment of the factorial structure of clinical symptoms in schizophrenia”. Psychopathology. 1997; 30263-274).
The PANSS was assessed at the time points described in Table 4.
The PANSS-derived endpoints used in these studies and the integrated analyses are described in Table 5A and a summary of the individual PANSS items used by physicians and clinicians to measure the severity of the symptoms in a schizophrenia patient is provided in Table 5B. The scale is divided into three parts, a positive scale, which provides a “PANSS positive subscore”, a negative scale, which provides a “PANSS negative subscore”, and general psychopathology scale. The sum of these three parts provides a PANSS total score, which ranges from 30 to 210 (where higher scores indicate more severe symptoms). (See Kay, S. R., et al. “The positive and negative syndrome scale (PANSS) for schizophrenia,” Schizophr Bulletin, 13(2), 261-276 (1987) and Gopal, S., et al. “Improvement of Negative Symptoms in Schizophrenia with Paliperidone Palmitate 1-Month and 3-Month Long-Acting Injectables: Results from a Phase 3 Non-Inferiority Study” Neuropsychiatric Disease and Treatment, 681-690, DOI: 10.2147/NDT.5226296, both of which are incorporated by reference.) […]

“1H-Isoindol-1-one,2-[ [1-[2-(4-fluorophenyl)-2-oxoethyl]-4-piperidinyl]methyl]-2,3-dihydro-, hydrochloride, hydrate (1:1:2) [Roluperidone]” was tested, and the “Effect Size vs Placebo: 20% reduction in NSFS responders” value (32 mg QD, Week 12 DB) was 0.06, the “Effect Size vs Placebo: 30% reduction in NSFS responders” value (32 mg QD, Week 12 DB) was 0 and the “Number of Patients with 20% reduction in NSFS at Week 12” value (32 mg QD, Week 12 DB) was 15/51. The “Number of Patients with 30% reduction in NSFS at Week 12” value (32 mg QD, Week 12 DB) was 2/51, the “Patients with 20% reduction in NSFS at Week 12 (%)” value (32 mg QD, Week 12 DB) was “(29%)” and the “Patients with 30% reduction in NSFS at Week 12 (%)” value (32 mg QD, Week 12 DB) was “(4%)”. The “Change from Baseline LS Mean: 3-Factor General Psychopathology Subscale Score” value (32 mg QD, Week 12 DB) was −1.07, the “Change from Baseline LS Mean: 3-Factor Negative Subscale Score” value (32 mg QD, Week 12 DB) was −3.35 and the “Change from Baseline LS Mean: 3-Factor Positive Subscale Score” value (32 mg QD, Week 12 DB) was 0.46. For the same substance, the “Change from Baseline LS Mean: 5-Factor Activation Score (PSM)” value (32 mg QD, Week 12 DB) was −0.05, the “Change from Baseline LS Mean: 5-Factor Autistic Preoccupation Score (PSM)” value (32 mg QD, Week 12 DB) was −0.85 and the “Change from Baseline LS Mean: 5-Factor Dysphoric Mood Score (PSM)” value (32 mg QD, Week 12 DB) was −0.32. For the same substance, the “Change from Baseline LS Mean: 5-Factor Positive Score (PSM)” value (32 mg QD, Week 12 DB) was 0.58, the “Change from Baseline LS Mean: NSFS (post-hoc)” value (32 mg QD, Week 12 DB) was −3.43 and the “Change from Baseline LS Mean: PANSS Negative Factor Score (pentagonal structure model)” value (32 mg QD, Week 12 DB) was −3.07. For the same substance, the “Change from Baseline LS Mean: PANSS Total Score” value (32 mg QD, Week 12 DB) was −3.66, the “Effect Size vs Placebo: 3-Factor General Psychopathology Subscale Score” value (32 mg QD, Week 12 DB) was 0.23 and the “Effect Size vs Placebo: 3-Factor Negative Subscale Score” value (32 mg QD, Week 12 DB) was 0.54. The “Effect Size vs Placebo: 3-Factor Positive Subscale Score” value (32 mg QD, Week 12 DB) was 0.16, the “Effect Size vs Placebo: 5-Factor Activation Score (PSM)” value (32 mg QD, Week 12 DB) was 0.44 and the “Effect Size vs Placebo: 5-Factor Autistic Preoccupation Score (PSM)” value (32 mg QD, Week 12 DB) was 0.08. For the same substance, the “Effect Size vs Placebo: 5-Factor Dysphoric Mood Score (PSM)” value (32 mg QD, Week 12 DB) was 0.11, the “Effect Size vs Placebo: 5-Factor Positive Score (PSM)” value (32 mg QD, Week 12 DB) was −0.13 and the “Effect Size vs Placebo: NSFS (post-hoc)” value (32 mg QD, Week 12 DB) was 0.61. For the same substance, the “Effect Size vs Placebo: PANSS Negative Factor Score (pentagonal structure model)” value (32 mg QD, Week 12 DB) was 0.45, the “Effect Size vs Placebo: PANSS Total Score” value (32 mg QD, Week 12 DB) was 0.34 and the “Effect Size vs Placebo: 20% reduction in NSFS responders” value (64 mg QD, Week 12 DB) was 0.17. For the same substance, the “Effect Size vs Placebo: 30% reduction in NSFS responders” value (64 mg QD, Week 12 DB) was 0.15, the “Number of Patients with 20% reduction in NSFS at Week 12” value (64 mg QD, Week 12 DB) was 18/54 and the “Number of Patients with 30% reduction in NSFS at Week 12” value (64 mg QD, Week 12 DB) was 7/54. The “Change from Baseline LS Mean: 3-Factor General Psychopathology Subscale Score” value (64 mg QD, Week 12 DB) was −2.58, the “Change from Baseline LS Mean: 3-Factor Negative Subscale Score” value (64 mg QD, Week 12 DB) was −3.82 and the “Change from Baseline LS Mean: 3-Factor Positive Subscale Score” value (64 mg QD, Week 12 DB) was 0.36. For the same substance, the “Change from Baseline LS Mean: 5-Factor Activation Score (PSM)” value (64 mg QD, Week 12 DB) was −0.17, the “Change from Baseline LS Mean: 5-Factor Autistic Preoccupation Score (PSM)” value (64 mg QD, Week 12 DB) was −1.21 and the “Change from Baseline LS Mean: 5-Factor Dysphoric Mood Score (PSM)” value (64 mg QD, Week 12 DB) was −1.04. The “Change from Baseline LS Mean: 5-Factor Positive Score (PSM)” value (64 mg QD, Week 12 DB) was −0.25, the “Change from Baseline LS Mean: NSFS (post-hoc)” value (64 mg QD, Week 12 DB) was −3.9 and the “Change from Baseline LS Mean: PANSS Negative Factor Score (pentagonal structure model)” value (64 mg QD, Week 12 DB) was −3.50. For the same substance, the “Change from Baseline LS Mean: PANSS Total Score” value (64 mg QD, Week 12 DB) was −5.83, the “Effect Size vs Placebo: 3-Factor General Psychopathology Subscale Score” value (64 mg QD, Week 12 DB) was 0.56 and the “Effect Size vs Placebo: 3-Factor Negative Subscale Score” value (64 mg QD, Week 12 DB) was 0.70. For the same substance, the “Effect Size vs Placebo: 3-Factor Positive Subscale Score” value (64 mg QD, Week 12 DB) was 0.20, the “Effect Size vs Placebo: 5-Factor Activation Score (PSM)” value (64 mg QD, Week 12 DB) was 0.49 and the “Effect Size vs Placebo: 5-Factor Autistic Preoccupation Score (PSM)” value (64 mg QD, Week 12 DB) was 0.22. For the same substance, the “Effect Size vs Placebo: 5-Factor Dysphoric Mood Score (PSM)” value (64 mg QD, Week 12 DB) was 0.43, the “Effect Size vs Placebo: 5-Factor Positive Score (PSM)” value (64 mg QD, Week 12 DB) was 0.24 and the “Effect Size vs Placebo: NSFS (post-hoc)” value (64 mg QD, Week 12 DB) was 0.78. The “Effect Size vs Placebo: PANSS Negative Factor Score (pentagonal structure model)” value (64 mg QD, Week 12 DB) was 0.57, the “Effect Size vs Placebo: PANSS Total Score” value (64 mg QD, Week 12 DB) was 0.57 and the “PANSS PSM negative factor score, course in OL period” value (OL period (placebo crossed over) and whole study) was “trend of improvement continued”.

From patent publication US20230255953A1, “USE OF ROLUPERIDONE IN PREVENTING RELAPSE IN SCHIZOPHRENIA PATIENTS” (Minerva Neurosciences, Inc., priority 2022, published 2023)
